Test results as given in publication PMC12794186, “Covalent Alkynylpyridopyrimidinones Targeting Cysteine 775 of the Epidermal Growth Factor Receptor Overcome Resistance to Current Therapies” (Journal of Medicinal Chemistry, 2025).
Like-named read-outs stand apart in the source and are kept apart here.

Columns and labels:
mLTC-EGFR = mLTC-EGFR (Homo sapiens, UniProt P00533, C797S/L858R/T790M); assay: Intact protein mass spectrometry, covalent adduct formation; type: binding; details: for covalent adduct formation, in words: intact protein mass spectrometry; for Protein adduct formation: adduct stoichiometry by intact protein mass spectrometry
wild-type EGFR (WT-EGFR) = target: T1, wild-type EGFR (WT-EGFR) (Homo sapiens, UniProt P00533); assay: TR-FRET fluorescent probe displacement assay; type: binding
T1 construct: made in house; host or cells: SF9 insect cells (MultiBac)
Description: Compounds (dissolved to 100 mM in DMSO) were dispensed into black low volume 384 well assay plates (Corning) over a final concentration range of 100,000, 30,000, 10,000, 3000, 1000, 300, 100, 30, 10, and 3 nM using an Echo 550 (Labcyte). Positive control compound and DMSO as a negative control were dispensed into the first and last well, respectively. Each well was backfilled with DMSO to a final volume of 200 nL, resulting in final assay DMSO concentrations of 1%. […] The data were analyzed using Graphpad Prism/Dotmatics Studies Software. Assays conducted in technical replicate and repeated as a biological duplicate.

[1] = test system: EGFR phosphorylation (Tyr1068) in H1975 (L858R, T790M) cells; assay: Western blot of EGFR phosphorylation; type: cell-based
Description: Cells, seeded on the previous day, were incubated with test compound at the indicated concentrations or DMSO (0.1%) for 4 h. […] Preparation of lysates and Western blotting was performed twice as independent experiments.
Samples were prepared by diluting lysates in PBS to the desired concentration and before adding 4X XT sample buffer. Samples were then denatured at 98 °C for 5 min and then centrifuged to remove the residue. […] The quality of transfer was assessed using Ponceau S Stain (Sigma-Aldrich Cat. No. p7170).
Loading control antibodies were prepared in 5% milk w/v with 1× TBS/T (0.1 v/v) solution at a determined optimum concentration.
Proteins were detected using Clarity ECL substrate (Bio-Rad) and imaged using a Licor Odyssey FC.

EGFR = assay: Time-course of EGFR modification by mass spectrometry; type: binding; details: within 10 min
Description: Peptides were detected in positive ion mode using electrospray ionization with nebulizer pressure of 35 psi, drying gas flow of 13 L/min and source gas temperature of 290 °C. Sheath gas temperature of 275 °C and gas flow of 12 L/min, capillary voltage of 4000 V and nozzle voltage of 300 V were also applied. Mass spectra were acquired using MassHunter Acquisition software (version B.08.00) over 100–1700 m/z range, at a rate of 5 spectra/s and 200 ms/spectrum, using standard mass range mode (3200 m/z) with extended dynamic range (2 GHz) and collection of both centroid and profile data. MS/MS fragmentation spectra were acquired over 100–3000 m/z range, at a rate of 3 spectra/s and 333.3 ms/spectrum. Acquired MS and MS/MS spectra were analyzed using Agilent MassHunter BioConfirm software (version B.10.00) against known amino acid sequences for EGFR for confirmation of covalent binding at Cys775. For the time course study, 150 μL EGFR (0.15 mg/mL) was incubated with compound 25328 to final concentration of 15 μM in a buffer solution of 20 mM Tris pH 8, 150 mM NaCl, 4% glycerol, 1 mM TCEP, 1% DMSO. […] Intact protein analysis perform as detailed above.

[2] = test system: EGFR phosphorylation (Tyr1068) in H1975 (L858R, T790M) cells; assay: HTRF cellular EGFR phosphorylation; type: cell-based; details: Homo sapiens, NCI-H1975; read-out: pEGFR IC50 by HTRF
Description: Cells were plated at 20,000 cells per well in 96-well plates and placed at 37 °C with 5% CO2. Compounds were reconstituted in DMSO. Once adhered (after 24 h), cells were treated with compounds at a final concentration of 0.1% DMSO in media. Compounds were added to duplicate wells and incubated 37 °C for 3 h with 5% CO2. For A431 cells 0.5 h before the end of incubation; 100 ng/mL of EGF (Thermo Fisher, Cat. No. PHG0311) was added to all compound-treated cells as well as control. Compound and media were removed from the cells, and then 50 μL of HTRF lysis buffer was added (lysis buffer was diluted from 4× stock to 1× in deionized (DI) water, with 1% blocking agent also added). Cells were lysed on a plate shaker (2000 rpm) for 30 min at room temperature. pEGFR expression was assessed using the Human Phospho-EGFR (Tyr1068) cellular detection kit (Revvity, Cat. No. 64EG1PEH). Total EGFR expression was monitored using the Human Total EGFR cellular detection kit (Revvity, Cat. No. 64NG1PEH) as per the manufacturer’s instructions. […] Results were calculated as the ratio of pEGFR/total EGFR and then the percentage of 0 μM control.

[3] = target: recombinant doubly mutated EGFR L858R, T790M kinase domain (mLT-EGFR) (Homo sapiens, UniProt P00533, L858R/T790M); assay: Kinetic analysis (AssayQuant); type: biochemical; details: for Ki: read-out: KI app
Description: Measurement of K I, K inact and K inact/K I was carried out by AssayQuant Technologies inc.

BAF EGFR L858R cells = details: BAF EGFR cell line; published compound, reference number not given; cited from earlier work
[4] = test system: BAF EGFR L858R/C775S cells; details: BAF EGFR cell line; published compound, reference number not given; cited from earlier work
[5] = TR-FRET, read-out: WT-EGFR IC50
[6] = supplementary csv, read-out: WT pIC50 (converted)
[7] = TR-FRET, n > 3, read-out: WT-EGFR IC50
[8] = TR-FRET, n > 3, read-out: WT-EGFR pIC50 ± std dev (converted)

C#Cc1cc(-c2cnn3ccccc23)nc(Nc2ccccc2)n1 [Compound 2, 4-Ethynyl-N-phenyl-6-(pyrazolo[1,5-a]pyridin-3-yl)pyrimidin-2-amine]
covalent adduct formation, in words (mLTC-EGFR): addition of a single adduct by mass spectrometry and a small amount of double adduct
IC50 (wild-type EGFR (WT-EGFR); [5]): 48000 ± 16000 nM
IC50 (wild-type EGFR (WT-EGFR); [6]): 50100 nM

C#Cc1cc(=O)n(-c2ccccc2)c2nc(Nc3ccccc3OC)ncc12 [Compound 3, 5-Ethynyl-2-[(2-methoxyphenyl)amino]-8-phenylpyrido[2,3-d]pyrimidin-7-one]
inhibition of pEGFR (Western blot) ([1]; H1975, 10 μM, 4 h): showed inhibition of pEGFR
protein modified (EGFR): Over 50%
IC50 [2]: > 3000 nM

C#Cc1cc(=O)n(-c2ccccc2)c2nc(Nc3ccc(N4CCOCC4)cc3OC)ncc12 [Compound 5, 5-Ethynyl-2-((2-methoxy-4-morpholinophenyl)amino)-8-phenylpyrido[2,3-d]pyrimidin-7(8H)-one]
IC50 (wild-type EGFR (WT-EGFR); [7]): 57 nM
IC50 (wild-type EGFR (WT-EGFR); [8]): 63.1 nM

C#Cc1cc(=O)n(-c2ccccc2)c2nc(Nc3ccc(N4CCOCC4)cc3)ncc12 [Compound 6, 5-Ethynyl-2-((4-morpholinophenyl)amino)-8-phenylpyrido[2,3-d]pyrimidin-7(8H)-one]
kinact [3]: 0.0061 ± 0.00035 s⁻¹
kinact/KI [3]: 3.7e+08 ± 3.8e+06 M⁻¹ s⁻¹
Ki [3]: 16 ± 1.1 nM
IC50 (wild-type EGFR (WT-EGFR); [7]): 69 nM
IC50 (wild-type EGFR (WT-EGFR); [8]): 63.1 nM

C#Cc1cc(=O)n(-c2ccccc2)c2nc(Nc3ccc(N4CCN(C)CC4)cc3OC)ncc12 [Compound 8, 5-Ethynyl-2-(2-methoxy-4-(4-methylpiperazine-1-ylphenyl)amino)-8-phenylpyrido[2,3-d]pyrimidin-7(8H)-one]
IC50 (wild-type EGFR (WT-EGFR); [7]): 100 nM
IC50 (wild-type EGFR (WT-EGFR); [8]): 100 nM
IC50 (wild-type EGFR (WT-EGFR); [6]): 100 nM

C#Cc1cc(=O)n(-c2ccccc2)c2nc(Nc3ccc(N4CCN(C)CC4)cc3)ncc12 [Compound 9, 5-Ethynyl-2-((4-(4-methylpiperazin-1-yl)phenyl)amino)-8-phenylpyrido[2,3-d]pyrimidin-7(8H)-one]
kinact [3]: 0.02 ± 0.0041 s⁻¹
kinact/KI [3]: 8.2e+08 ± 8.3e+06 M⁻¹ s⁻¹
Ki [3]: 24 ± 5.2 nM
IC50 (wild-type EGFR (WT-EGFR); [7]): 77 nM
IC50 (wild-type EGFR (WT-EGFR); [8]): 79.4 nM

C#Cc1cc(=O)n(-c2ccccc2)c2nc(Nc3ccc(N(C)C(=O)COC)cc3OC)ncc12 [Compound 10, N-(4-((5-Ethynyl-7-oxo-8-phenyl-7,8-dihydropyrido[2,3-d]pyrimidin-2-yl)amino)-3-methoxyphenyl)-2-methoxy-N-methylacetamide]
kinact [3]: 0.0035 ± 0.00072 s⁻¹
kinact/KI [3]: 1.8e+07 ± 480000 M⁻¹ s⁻¹
Ki [3]: 200 ± 45 nM
IC50 (wild-type EGFR (WT-EGFR); [7]): 3300 nM
IC50 (wild-type EGFR (WT-EGFR); [8]): 3160 nM

C#Cc1cc(=O)n(-c2ccccc2)c2nc(Nc3ccc(N(C)C(=O)CCOC)cc3OC)ncc12 [Compound 11, N-(4-((5-Ethynyl-7-oxo-8-phenyl-7,8-dihydropyrido[2,3-d]pyrimidin-2-yl)amino)-3-methoxyphenyl)-3-methoxy-N-methylpropanamide]
IC50 (wild-type EGFR (WT-EGFR); [7]): 4100 nM
IC50 (wild-type EGFR (WT-EGFR); [8]): 3160 nM

C#Cc1cc(=O)n(-c2ccccc2)c2nc(Nc3ccc(N(C)C(=O)CN(C)C)cc3OC)ncc12 [Compound 12, 2-(Dimethylamino)-N-(4-((5-ethynyl-7-oxo-8-phenyl-7,8-dihydropyrido[2,3-d]pyrimidin-2-yl)amino)-3-methoxyphenyl)-N-methylacetamide]
kinact [3]: 0.0051 ± 0.00061 s⁻¹
kinact/KI [3]: 3.3e+07 ± 440000 M⁻¹ s⁻¹
Ki [3]: 160 ± 20 nM
IC50 (wild-type EGFR (WT-EGFR); [7]): 5100 nM
IC50 (wild-type EGFR (WT-EGFR); [8]): 5010 nM

C=CC(=O)Nc1cccc(-c2nn(C)c3ncnc(N)c23)c1 [Compound S1]
Protein adduct formation (mLTC-EGFR): 1

C#CC(=O)Nc1cccc(-c2nn(C)c3ncnc(N)c23)c1 [Compound S2]
Protein adduct formation (mLTC-EGFR): 1-3

C=CC(=O)NCc1cccc(-c2nn(C)c3ncnc(N)c23)c1 [Compound S3]
Protein adduct formation (mLTC-EGFR): 0

C=CC(=O)NCc1cc(=O)n(-c2ccccc2)c2nc(Nc3ccccc3OC)ncc12 [Compound S4]
Protein adduct formation (mLTC-EGFR): 0

C#CC(=O)NCc1cc(=O)n(-c2ccccc2)c2nc(Nc3ccccc3OC)ncc12 [Compound S5]
Protein adduct formation (mLTC-EGFR): 1-2

C=CC(=O)NCCOc1ccc(-c2nn(C)c3ncnc(N)c23)cc1 [Compound S7]
Protein adduct formation (mLTC-EGFR): 0

C=CC(=O)Nc1ccccc1Oc1ccc(-c2nn(C)c3ncnc(N)c23)cc1 [Compound S8]
Protein adduct formation (mLTC-EGFR): 0-1

C#CC(=O)Nc1ccccc1Oc1ccc(-c2nn(C)c3ncnc(N)c23)cc1 [Compound S9]
Protein adduct formation (mLTC-EGFR): 1-4

COc1ccccc1Nc1ncc2ccc(=O)n(-c3ccccc3)c2n1 [Compound S10]
IC50 (wild-type EGFR (WT-EGFR); [8]): 15800 nM
IC50 (wild-type EGFR (WT-EGFR); [5]): 15000 nM

C=Cc1cc(=O)n(-c2ccccc2)c2nc(Nc3ccccc3OC)ncc12 [Compound S11]
covalent adduct formation, in words (mLTC-EGFR): reduced protein modulation
IC50 (wild-type EGFR (WT-EGFR); [8]): > 100000 nM
IC50 (wild-type EGFR (WT-EGFR); [5]): > 100000 nM

CC#Cc1cc(=O)n(-c2ccccc2)c2nc(Nc3ccccc3OC)ncc12 [Compound S12]
covalent adduct formation, in words (mLTC-EGFR): little to no modification
IC50 (wild-type EGFR (WT-EGFR); [8]): > 100000 nM
IC50 (wild-type EGFR (WT-EGFR); [5]): > 100000 nM

C=CC(=O)Nc1cc(C(=O)Nc2nc3cccc(Cl)c3n2[C@@H]2CCCCN(C(=O)C=C)C2)cs1 [dual C775–C797 inhibitor]
GI50 (BAF EGFR L858R cells): 10 nM
GI50 [4]: 20 nM

C=CC(=O)Nc1cc(Nc2nccc(-c3cn(C)c4ccccc34)n2)c(OC)cc1N(C)CCN(C)C [osimertinib, reference compound]
inhibition of EGFR and ERK1/2 phosphorylation (Western blot) ([1]; H1975, 4 h exposure, concentration series): inhibition of EGFR and ERK1/2 phosphorylation was evident
